Source: PubChem BioAssay (NCI)
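Results reflect a 48-hour exposure of cells in 96-well plates to compound at five concentrations. GI50 is the concentration that inhibits growth by half. At the TGI there is no net growth.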

These compounds were tested on SNB-19 CNS (assay: DTP human tumour cell line panel, 48 h).

Compound	TGI
COc1ccc(-c2cn3ccsc3n2)cc1	> 100 µM
CCOC1=NC(=O)CC(c2ccccc2)S1 (centres undefined)	> 100 µM

What follows are compounds tested on ACHN renal (assay: DTP human tumour cell line panel, 48 h).

Compound	GI50	TGI
N.N.N.N.N.O=C([O-])c1nn[n-]n1.[Cl-].[Co+3]	> 100 µM	> 100 µM
COc1c2c(cc3nc4ccccc4nc13)CCC(C(C)(C)O)C2 (centres undefined)		> 100 µM
CN(C)CC/C(=N\Nc1c(Cl)cccc1Cl)c1ccccc1		50.5 µM
CC(C)=CCC/C(=C/CC/C(C)=C/CCc1ccoc1)C(=O)O		> 100 µM
COc1ccc(-c2cn3ccsc3n2)cc1		> 100 µM
CCOC1=NC(=O)CC(c2ccccc2)S1 (centres undefined)		> 100 µM
CCOC(=O)C(Cc1ccc2ccccc2c1)(Cc1ccc2ccccc2c1)C(C)=O		> 10 µM

What follows are compounds tested on SK-OV-3 ovarian (assay: DTP human tumour cell line panel, 48 h).

Compound	GI50	TGI
N.N.N.N.N.O=C([O-])c1nn[n-]n1.[Cl-].[Co+3]	> 100 µM	> 100 µM
COc1c2c(cc3nc4ccccc4nc13)CCC(C(C)(C)O)C2 (centres undefined)		> 100 µM
CN(C)CC/C(=N\Nc1c(Cl)cccc1Cl)c1ccccc1		52 µM
CC(C)=CCC/C(=C/CC/C(C)=C/CCc1ccoc1)C(=O)O		> 100 µM
COc1ccc(-c2cn3ccsc3n2)cc1		> 100 µM
CCOC(=O)C(Cc1ccc2ccccc2c1)(Cc1ccc2ccccc2c1)C(C)=O		> 10 µM

The compounds below were run on HT29 colon (assay: DTP human tumour cell line panel, 48 h).

Compound	GI50	TGI
N.N.N.N.N.O=C([O-])c1nn[n-]n1.[Cl-].[Co+3]	> 100 µM	> 100 µM
COc1c2c(cc3nc4ccccc4nc13)CCC(C(C)(C)O)C2 (centres undefined)		> 100 µM
CN(C)CC/C(=N\Nc1c(Cl)cccc1Cl)c1ccccc1		29.3 µM
CC(C)=CCC/C(=C/CC/C(C)=C/CCc1ccoc1)C(=O)O		> 100 µM
COc1ccc(-c2cn3ccsc3n2)cc1		> 100 µM
CCOC1=NC(=O)CC(c2ccccc2)S1 (centres undefined)		> 100 µM

Each compound was assayed on HL-60(TB) leukemia (assay: DTP human tumour cell line panel, 48 h).

Compound	GI50	TGI
N.N.N.N.N.O=C([O-])c1nn[n-]n1.[Cl-].[Co+3]	> 100 µM	> 100 µM
COc1c2c(cc3nc4ccccc4nc13)CCC(C(C)(C)O)C2 (centres undefined)		76 µM
CN(C)CC/C(=N\Nc1c(Cl)cccc1Cl)c1ccccc1		39.4 µM
COc1ccc(-c2cn3ccsc3n2)cc1		85.7 µM
CCOC1=NC(=O)CC(c2ccccc2)S1 (centres undefined)		> 100 µM

What follows are compounds tested on A498 renal (assay: DTP human tumour cell line panel, 48 h).

Compound	TGI
COc1c2c(cc3nc4ccccc4nc13)CCC(C(C)(C)O)C2 (centres undefined)	> 100 µM
CN(C)CC/C(=N\Nc1c(Cl)cccc1Cl)c1ccccc1	34.8 µM
CC(C)=CCC/C(=C/CC/C(C)=C/CCc1ccoc1)C(=O)O	> 100 µM
CCOC1=NC(=O)CC(c2ccccc2)S1 (centres undefined)	> 100 µM

These compounds were tested on EKVX NSCLC (assay: DTP human tumour cell line panel, 48 h).

Compound	GI50	TGI
N.N.N.N.N.O=C([O-])c1nn[n-]n1.[Cl-].[Co+3]	> 100 µM	> 100 µM
COc1c2c(cc3nc4ccccc4nc13)CCC(C(C)(C)O)C2 (centres undefined)		> 100 µM
CN(C)CC/C(=N\Nc1c(Cl)cccc1Cl)c1ccccc1		94.7 µM
CC(C)=CCC/C(=C/CC/C(C)=C/CCc1ccoc1)C(=O)O		> 100 µM
COc1ccc(-c2cn3ccsc3n2)cc1		> 100 µM
CCOC1=NC(=O)CC(c2ccccc2)S1 (centres undefined)		> 100 µM

What follows are compounds tested on SF-268 CNS (assay: DTP human tumour cell line panel, 48 h).

Compound	GI50	TGI
N.N.N.N.N.O=C([O-])c1nn[n-]n1.[Cl-].[Co+3]	> 100 µM	> 100 µM
COc1c2c(cc3nc4ccccc4nc13)CCC(C(C)(C)O)C2 (centres undefined)		> 100 µM
CC(C)=CCC/C(=C/CC/C(C)=C/CCc1ccoc1)C(=O)O		> 100 µM
COc1ccc(-c2cn3ccsc3n2)cc1		> 100 µM
CCOC1=NC(=O)CC(c2ccccc2)S1 (centres undefined)		> 100 µM

The compounds below were run on HCT-15 colon (assay: DTP human tumour cell line panel, 48 h).

Compound	GI50	TGI
N.N.N.N.N.O=C([O-])c1nn[n-]n1.[Cl-].[Co+3]	> 100 µM	> 100 µM
COc1c2c(cc3nc4ccccc4nc13)CCC(C(C)(C)O)C2 (centres undefined)		> 100 µM
CN(C)CC/C(=N\Nc1c(Cl)cccc1Cl)c1ccccc1		35.6 µM
CC(C)=CCC/C(=C/CC/C(C)=C/CCc1ccoc1)C(=O)O		> 100 µM
COc1ccc(-c2cn3ccsc3n2)cc1		> 100 µM
CCOC1=NC(=O)CC(c2ccccc2)S1 (centres undefined)		> 100 µM
CCOC(=O)C(Cc1ccc2ccccc2c1)(Cc1ccc2ccccc2c1)C(C)=O		> 10 µM

These compounds were tested on SN12C renal (assay: DTP human tumour cell line panel, 48 h).

Compound	GI50	TGI
N.N.N.N.N.O=C([O-])c1nn[n-]n1.[Cl-].[Co+3]	> 100 µM	> 100 µM
COc1c2c(cc3nc4ccccc4nc13)CCC(C(C)(C)O)C2 (centres undefined)		> 100 µM
CN(C)CC/C(=N\Nc1c(Cl)cccc1Cl)c1ccccc1		92.7 µM
CC(C)=CCC/C(=C/CC/C(C)=C/CCc1ccoc1)C(=O)O		> 100 µM
COc1ccc(-c2cn3ccsc3n2)cc1		> 100 µM
CCOC1=NC(=O)CC(c2ccccc2)S1 (centres undefined)		> 100 µM
CCOC(=O)C(Cc1ccc2ccccc2c1)(Cc1ccc2ccccc2c1)C(C)=O		> 10 µM

The compounds below were run on SR leukemia (assay: DTP human tumour cell line panel, 48 h).

Compound	GI50	TGI
N.N.N.N.N.O=C([O-])c1nn[n-]n1.[Cl-].[Co+3]	> 100 µM	> 100 µM
COc1c2c(cc3nc4ccccc4nc13)CCC(C(C)(C)O)C2 (centres undefined)		> 100 µM
CN(C)CC/C(=N\Nc1c(Cl)cccc1Cl)c1ccccc1		63.4 µM
COc1ccc(-c2cn3ccsc3n2)cc1		75.6 µM

Each compound was assayed on HOP-92 NSCLC (assay: DTP human tumour cell line panel, 48 h).

Compound	GI50	TGI
N.N.N.N.N.O=C([O-])c1nn[n-]n1.[Cl-].[Co+3]	> 100 µM	> 100 µM
COc1c2c(cc3nc4ccccc4nc13)CCC(C(C)(C)O)C2 (centres undefined)		> 100 µM
CC(C)=CCC/C(=C/CC/C(C)=C/CCc1ccoc1)C(=O)O		> 100 µM
COc1ccc(-c2cn3ccsc3n2)cc1		> 100 µM
CCOC1=NC(=O)CC(c2ccccc2)S1 (centres undefined)		> 100 µM
CCOC(=O)C(Cc1ccc2ccccc2c1)(Cc1ccc2ccccc2c1)C(C)=O		> 10 µM

Each compound was assayed on UACC-257 melanoma (assay: DTP human tumour cell line panel, 48 h).

Compound	GI50	TGI
N.N.N.N.N.O=C([O-])c1nn[n-]n1.[Cl-].[Co+3]	> 100 µM	> 100 µM
COc1c2c(cc3nc4ccccc4nc13)CCC(C(C)(C)O)C2 (centres undefined)		> 100 µM
CN(C)CC/C(=N\Nc1c(Cl)cccc1Cl)c1ccccc1		32.7 µM
CC(C)=CCC/C(=C/CC/C(C)=C/CCc1ccoc1)C(=O)O		> 100 µM
COc1ccc(-c2cn3ccsc3n2)cc1		> 100 µM
CCOC1=NC(=O)CC(c2ccccc2)S1 (centres undefined)		> 100 µM

The compounds below were run on U251 CNS (assay: DTP human tumour cell line panel, 48 h).

Compound	GI50	TGI
N.N.N.N.N.O=C([O-])c1nn[n-]n1.[Cl-].[Co+3]	> 100 µM	> 100 µM
COc1c2c(cc3nc4ccccc4nc13)CCC(C(C)(C)O)C2 (centres undefined)		> 100 µM
CN(C)CC/C(=N\Nc1c(Cl)cccc1Cl)c1ccccc1		31.3 µM
CC(C)=CCC/C(=C/CC/C(C)=C/CCc1ccoc1)C(=O)O		> 100 µM
COc1ccc(-c2cn3ccsc3n2)cc1		> 100 µM
CCOC1=NC(=O)CC(c2ccccc2)S1 (centres undefined)		> 100 µM
CCOC(=O)C(Cc1ccc2ccccc2c1)(Cc1ccc2ccccc2c1)C(C)=O		> 10 µM

These compounds were tested on IGROV1 ovarian (assay: DTP human tumour cell line panel, 48 h).

Compound	GI50	TGI
N.N.N.N.N.O=C([O-])c1nn[n-]n1.[Cl-].[Co+3]	> 100 µM	> 100 µM
COc1c2c(cc3nc4ccccc4nc13)CCC(C(C)(C)O)C2 (centres undefined)		> 100 µM
CN(C)CC/C(=N\Nc1c(Cl)cccc1Cl)c1ccccc1		92.4 µM
COc1ccc(-c2cn3ccsc3n2)cc1		> 100 µM
CCOC1=NC(=O)CC(c2ccccc2)S1 (centres undefined)		> 100 µM
CCOC(=O)C(Cc1ccc2ccccc2c1)(Cc1ccc2ccccc2c1)C(C)=O		> 10 µM

What follows are compounds tested on DLD-1 colon (assay: DTP human tumour cell line panel, 48 h).

Compound	GI50	TGI
N.N.N.N.N.O=C([O-])c1nn[n-]n1.[Cl-].[Co+3]	> 100 µM	> 100 µM
